From BindingDB's records for doi:10.1016/j.bmcl.2014.05.036 (AstraZeneca, 2014) come the findings set out here.

One may read the IC50 as the concentration at which inhibition is half-maximal.

Experiment [1] is described as follows: Inhibition of human BCL-xL overexpressed in mouse FDC-P1 cells assessed as cell viability after 24 hrs by Cell Titer Glo assay. In general terms: Cellular ATP, detected with luciferase, serves as a proxy for viable cell number.
Experiment [2] can be described thus: Inhibition of human BCL-2 overexpressed in mouse FDC-P1 cells assessed as cell viability after 24 hrs by Cell Titer Glo assay.

The structures appear in SMILES notation.

Regarding `O=C(NS(=O)(=O)c1ccc(N[C@H](CCN2CCOCC2)CSc2ccccc2)c(S(=O)(=O)C(F)(F)F)c1)c1cnc(N2CCN(Cc3ccccc3-c3ccc(Cl)cc3)CC2)nc1`, the IC50 came out at 2090 nM in experiment [1] and 340 nM in experiment [2].
With `N#CC1(Cc2ccccc2-c2ccc(Cl)cc2)CCN(c2ccc(C(=O)NS(=O)(=O)c3ccc(N[C@H](CCN4CCOCC4)CSc4ccccc4)c(S(=O)(=O)C(F)(F)F)c3)cc2)CC1`, the IC50 in experiment [1] was found to be 2820 nM; in experiment [2], 545 nM.
On to `O=C(NS(=O)(=O)c1ccc(N[C@H](CCN2CCOCC2)CSc2ccccc2)c(S(=O)(=O)C(F)(F)F)c1)c1ccc(N2CCC([S@@+]([O-])c3ccccc3-c3ccc(Cl)cc3)CC2)cc1`, for which the half-maximal inhibitory concentration (IC50) stood at 1720 nM in experiment [1] and 434 nM in experiment [2].
In the same order, the values of `CN(C)CCOc1ccc(-c2ccc(Cl)cc2)c(CN2CCN(c3ccc(C(=O)NS(=O)(=O)c4ccc(N[C@H](CCN5CCOCC5)CSc5ccccc5)c(S(=O)(=O)C(F)(F)F)c4)cc3)CC2)c1` are 138 nM and 22 nM.
In the same order, the values of `CN(C)C(=O)COc1cccc(-c2ccc(Cl)cc2)c1CN1CCN(c2ccc(C(=O)NS(=O)(=O)c3ccc(N[C@H](CCN4CCOCC4)CSc4ccccc4)c(S(=O)(=O)C(F)(F)F)c3)cc2)CC1` are 226 nM and 45 nM.
In the same order, the values of `CN(C)CCOc1cccc(-c2ccc(Cl)cc2)c1CN1CCN(c2ccc(C(=O)NS(=O)(=O)c3ccc(N[C@H](CCN4CCOCC4)CSc4ccccc4)c(S(=O)(=O)C(F)(F)F)c3)cc2)CC1` are 33 nM and 4 nM.
`CN(C)C(=O)COc1ccc(-c2ccc(Cl)cc2)c(CN2CCN(c3ccc(C(=O)NS(=O)(=O)c4ccc(N[C@H](CCN5CCOCC5)CSc5ccccc5)c(S(=O)(=O)C(F)(F)F)c4)cc3)CC2)c1`: the IC50 turned out to be 2090 nM in experiment [1] and 187 nM in experiment [2].
As for `O=C(NS(=O)(=O)c1ccc(N[C@H](CCN2CCOCC2)CSc2ccccc2)c(S(=O)(=O)C(F)(F)F)c1)c1ccc(N2CCN(Cc3ccccc3-c3ccc(Cl)cc3)CC2)cc1`, the half-inhibitory concentration (IC50) came out at 64 nM in experiment [1] and 14 nM in experiment [2].
